# Assays:
# [1] = system: AMP-evolved E. coli lines; assay: Cross-resistance / collateral sensitivity: relative MIC change of 38 laboratory-evolved AMP-resistant lines vs parental strain; assay type: cell-based, Escherichia coli; conditions: measured here
# From the text: Here, we extended this dataset by measuring susceptibility changes of the same evolved lines to four additional AMPs using identical protocols to represent AMPs from all four clusters (Supplementary Fig. 15a, see also Methods). Overall, the resulting dataset of susceptibility profiles provides a comprehensive map of cross-resistance and collateral sensitivity between AMPs representing various modes of action.
# To characterize the cross-resistance of the 38 E. coli lineages we obtained relative MIC changes that are, the MIC values of the evolved lines compared to these of the parental strain, from two data sources. First, we used already measured relative MIC changes from Spohn et al. Supplementary data 4[20]. […] Second, we extended this dataset by measuring the relative MIC changes of the same evolved lines to four additional AMPs using identical protocol. […] In this way, AMPs from each cluster were represented in the dataset.
# Supplementary Figure 15. […] Relative change in MIC was determined for each evolved line by comparing its MIC to the ancestral cell line (control). […] CAP18-adaped lines were not included in the analysis because CAP18 is known as a membrane-targeting AMP in the literature. c, Cross-resistance interactions are enriched between membrane-targeting AMPs that are in the same chemical-genetic clusters (i.e. AMP pairs within C1 and within C2 clusters) (Significant difference: ** P = 0.0082 from two-sided Fisher’s exact test, n = 61 and 62 for within cluster and between clusters, respectively). […] Source data are provided as a Source Data file.
# [2] = system: E. coli BW25113 overexpression strains (ASKA plasmids); assay: Minimum inhibitory concentration (MIC), serial broth dilution, single-gene overexpression strains vs empty-vector control; assay type: cell-based, Escherichia coli; conditions: MIC of overexpression strain / MIC of empty-plasmid control, broth dilution, MS medium, 100 µM IPTG, 30 °C, 20-24 h, OD600, 3 replicates
# How it was run: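 E. coli overexpression strains grown in MS medium with chloramphenicol, induced with 100 µM IPTG for 1 h at 30 °C, then about half-million cells inoculated into 12-step AMP dilutions (typically 1.2-fold steps). OD600 read after 20–24 h at 30 °C with shaking; triplicate strains compared with empty-vector control.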
# [3] = system: bacterial species in which the gene showed activity; conditions: Salmonella enterica serovar Typhimurium; ref http://aac.asm.org/content/52/8/2734.full.pdf+html; cited from earlier work
sequence,measurement,setting,value
"RRRPRPPYLPRPRPPPFFPPRLPPRIPPGFPPRFPPRFP [PR39, PR-39, cathelicidin, source pig; cluster C4]",Relative change in MIC (MIC of the AMP-adpated line / MIC of the ancestral strain),[1]; AMP-adapted line BAC5_3,1.32
same,Relative change in MIC (MIC of the AMP-adpated line / MIC of the ancestral strain),[1]; AMP-adapted line BAC5_5,1.464
same,Relative change in MIC (MIC of the AMP-adpated line / MIC of the ancestral strain),[1]; AMP-adapted line BAC5_7,1.584
same,Relative change in MIC (MIC of the AMP-adpated line / MIC of the ancestral strain),[1]; AMP-adapted line BAC5_10,1.57
same,Relative change in MIC (MIC of the AMP-adpated line / MIC of the ancestral strain),[1]; AMP-adapted line CAP18_2,1
same,Relative change in MIC (MIC of the AMP-adpated line / MIC of the ancestral strain),[1]; AMP-adapted line CAP18_5,0.915
same,Relative change in MIC (MIC of the AMP-adpated line / MIC of the ancestral strain),[1]; AMP-adapted line CAP18_6,0.83
same,Relative change in MIC (MIC of the AMP-adpated line / MIC of the ancestral strain),[1]; AMP-adapted line CAP18_8,1
same,Relative change in MIC (MIC of the AMP-adpated line / MIC of the ancestral strain),[1]; AMP-adapted line CAP18_10,0.83
same,Relative change in MIC (MIC of the AMP-adpated line / MIC of the ancestral strain),[1]; AMP-adapted line HBD3_3,1
same,Relative change in MIC (MIC of the AMP-adpated line / MIC of the ancestral strain),[1]; AMP-adapted line HBD3_6,0.915
same,Relative change in MIC (MIC of the AMP-adpated line / MIC of the ancestral strain),[1]; AMP-adapted line HBD3_8,1.1
same,Relative change in MIC (MIC of the AMP-adpated line / MIC of the ancestral strain),[1]; AMP-adapted line HBD3_10,1.1
same,Relative change in MIC (MIC of the AMP-adpated line / MIC of the ancestral strain),[1]; AMP-adapted line LL37_1,1.1
same,Relative change in MIC (MIC of the AMP-adpated line / MIC of the ancestral strain),[1]; AMP-adapted line LL37_3,1.1
same,Relative change in MIC (MIC of the AMP-adpated line / MIC of the ancestral strain),[1]; AMP-adapted line LL37_6,1.1
same,Relative change in MIC (MIC of the AMP-adpated line / MIC of the ancestral strain),[1]; AMP-adapted line LL37_7,1.2
same,Relative change in MIC (MIC of the AMP-adpated line / MIC of the ancestral strain),[1]; AMP-adapted line LL37_10,0.915
same,Relative change in MIC (MIC of the AMP-adpated line / MIC of the ancestral strain),[1]; AMP-adapted line PEX_1,1
same,Relative change in MIC (MIC of the AMP-adpated line / MIC of the ancestral strain),[1]; AMP-adapted line PEX_4,1
same,Relative change in MIC (MIC of the AMP-adpated line / MIC of the ancestral strain),[1]; AMP-adapted line PEX_5,0.915
same,Relative change in MIC (MIC of the AMP-adpated line / MIC of the ancestral strain),[1]; AMP-adapted line PEX_6,1
same,Relative change in MIC (MIC of the AMP-adpated line / MIC of the ancestral strain),[1]; AMP-adapted line PEX_7,1
same,Relative change in MIC (MIC of the AMP-adpated line / MIC of the ancestral strain),[1]; AMP-adapted line PROA_2,1
same,Relative change in MIC (MIC of the AMP-adpated line / MIC of the ancestral strain),[1]; AMP-adapted line PROA_3,0.915
same,Relative change in MIC (MIC of the AMP-adpated line / MIC of the ancestral strain),[1]; AMP-adapted line PROA_7,1
same,Relative change in MIC (MIC of the AMP-adpated line / MIC of the ancestral strain),[1]; AMP-adapted line PROA_8,1
same,Relative change in MIC (MIC of the AMP-adpated line / MIC of the ancestral strain),[1]; AMP-adapted line PROA_9,1
same,Relative change in MIC (MIC of the AMP-adpated line / MIC of the ancestral strain),[1]; AMP-adapted line PXB_2,1.728
same,Relative change in MIC (MIC of the AMP-adpated line / MIC of the ancestral strain),[1]; AMP-adapted line PXB_5,1.44
same,Relative change in MIC (MIC of the AMP-adpated line / MIC of the ancestral strain),[1]; AMP-adapted line PXB_6,1.728
same,Relative change in MIC (MIC of the AMP-adpated line / MIC of the ancestral strain),[1]; AMP-adapted line PXB_8,1.44
same,Relative change in MIC (MIC of the AMP-adpated line / MIC of the ancestral strain),[1]; AMP-adapted line PXB_10,1
same,Relative MIC,[2]; overexpression strain cvpA,0.8
same,Relative MIC,[2]; overexpression strain gadW,1.32
same,Relative MIC,[2]; overexpression strain mhpA,0.78
same,Relative MIC,[2]; overexpression strain mzrA,0.8
same,Relative MIC,[2]; overexpression strain nikB,0.8
same,Relative MIC,[2]; overexpression strain uhpC,1.25
same,Gene that modulates bacterial susceptibility to the AMP,[3],sbmA

# — PMC6915728 (Nature Communications, 2019)
